pIC50: −log10 of the molar value.
Tests used:
TNFa on macrophages = experiment: Inhibition of TNFα release from stimulated macrophages; type: cell-based, mouse; settings: LPS and IFN-γ stimulated primary macrophages, ELISA
Method: Peritoneal exudate macrophages were isolated by peritoneal lavage with ice-cold sterile physiological saline 24 hours after intraperitoneal injection of BALB/c mice with 0.5 mL of sterile Zymosan A (1 mg/0.5 mL 0.9% saline). […] Murine primary macrophage will get activated following incubation with LPS in the presence of sub-optimal doses of IFN-γ. […] TNF-αlevels in the supernatants from stimulated macrophages were determined with PharMingen's OptEIA TNF-α kit (PharMingen). The experiment was performed at room temperature, about 21° C., unless otherwise stated. The microwells (F8 MaxiSorp™ Loose/Nunc-Immuno Module; Gibco/BRL) were coated with 100 μl/well of capture antibody (at the recommended concentration) and incubated overnight at 4° C. […] Next, the solution was removed and the plates were washed 5× with wash buffer. The TNF-αanalysis was initiated by adding duplicate samples (100 μl/well) or standards (100 μl/well) in diluent buffer which were incubated for 2 h. The solution was removed and the plates washed 5× with wash buffer. Enzyme reagent (100 μl) containing biotinylated mouse TNF-αmonoclonal antibody and avidin-horseradish peroxidase conjugate (at concentrations recommended by the manufacturer) was added to each well. The plate was incubated for 1 hour, the solution removed, and the plates washed 7× with wash buffer. […] Colour development was terminated by adding 50 μl of 2N H2SO4. […] Peritoneal exudate macrophages were isolated by peritoneal lavage with ice-cold sterile physiological saline 24 hours after intraperitoneal injection of BALB/c mice with 0.3 ml of sterile zymosan A (1 mg/0.5 mL 0.9% saline). […] All treatments were replicated six times. Cells were incubated for an additional 24 hours, and cell free culture supernatants from each well were collected for NO and cytokine determination. The remaining cells were stained with crystal violet to determine effect of the compound on cell survival.

IL-12 on macrophages = experiment: Inhibition of IL-12 release from stimulated macrophages; type: cell-based, mouse; settings: LPS and IFN-γ stimulated primary macrophages, ELISA
Method: Peritoneal exudate macrophages were isolated by peritoneal lavage with ice-cold sterile physiological saline 24 hours after intraperitoneal injection of BALB/c mice with 0.5 mL of sterile Zymosan A (1 mg/0.5 mL 0.9% saline). […] Murine primary macrophage are activated following incubation with LPS in the presence of sub-optimal doses of IFN-γ. Upon activation, macrophages participate actively in the onset of inflammation by releasing bioactive molecules that amplify the initial inflammatory response. […] Briefly, IL-12 levels in the supernatants from stimulated macrophages were determined with PharMingen's OptEIA™ ELISA set developed using an anti-mouse IL-12 antibody pair and mouse rIL-12 standard (PharMingen). Maxisorp™ F16 multiwell strips (Nunc, Roskilde, Denmark) were coated with anti-mouse IL-12 capture Ab (at recommended concentration) in 0.1 M NaHCO3, pH 9.5, 100 μL/well, overnight at 4° C. […] Plates were washed 3× with PBST and duplicate samples (100 μL/well) or standards (100 μL/well) in diluent buffer were incubated for 2 h. Plates were washed five times with PBST and incubated with biotinylated anti-mouse IL-12 and avidin-horseradish peroxidase (HRP) conjugate (at concentrations recommended by the manufacturer) for 1 h. […] Peritoneal exudate macrophages were isolated by peritoneal lavage with ice-cold sterile physiological saline 24 hours after intraperitoneal injection of BALB/c mice with 0.3 ml of sterile zymosan A (1 mg/0.5 mL 0.9% saline). […] All treatments were replicated six times. Cells were incubated for an additional 24 hours, and cell free culture supernatants from each well were collected for NO and cytokine determination. The remaining cells were stained with crystal violet to determine effect of the compound on cell survival.

SMILES | pIC50 (TNFa on macrophages) | pIC50 (IL-12 on macrophages)
COc1cc2sc(-c3c(N4CCNCC4)n[nH]c3N)nc2cc1F [4-(5-Fluoro-6-methoxybenzothiazole)-5-piperizin-1-yl-2H-pyrazol-3-ylamine] | 4.83 | 4.63
COc1cc2sc(-c3c(NCCN(C)C)n[nH]c3N)nc2cc1F [N^3-(2-Dimethylaminoethyl)-4-(5-fluoro-6-methoxybenzothiazole)-1H-pyrazole-3,5-diamine] | 4.77 | < 4.60
